The test system of assay [1] is HUVECs. The experiment in a line: Tube formation (tubulogenesis) assay in HUVECs, 18 h. It counts as cell-based, human. Particulars: Homo sapiens, HUVEC, 18 h; for activity at 0.1 µM: 0.10 µM. The procedure, abridged:
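HUVECs (passage 1–5) seeded on reduced-growth-factor basement membrane and exposed to compounds overnight at 37°C, 5% CO2, in 2× maintenance medium with 12.5 ng/mL VEGF; 0.5% DMSO vehicle. Calcein AM-stained tube networks imaged and analysed; vehicle-normalized readouts fit to four-parameter logistic, POD set at one SD of vehicle means.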

Assay [2] relates to iCell endothelial cells (human iPSC-derived ECs). The experiment in a line: High-content imaging cytotoxicity in iCell endothelial cells, 24 h. The format is cell-based. Conditions: Homo sapiens, Endothelial cell, 24 hr; for viability at 0.1 µM / activity at 0.1 µM: 0.10 µM. An outline of the steps:
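Human iPSC-derived endothelial cells (passages 1–5) were grown to a fibronectin-coated monolayer, then exposed 24 h at 37 °C with 0.5% DMSO vehicle. Staining was Hoechst 33342, MitoTracker Orange and calcein AM, read by high-content imaging. Point of departure came from 4-parameter logistic fits, with a 1-SD vehicle cutoff and 100 µM as the top concentration.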

The mark [3] stands for this setting: HUVECs, 0.00 µM = 100.00, read-out: huvec.mtl.18hr.
Setting [4] is: HUVECs, 0.00 µM = 100.00, read-out: huvec.tlps.18hr.
Where [5] appears, read: HUVECs, 0.00 µM = 100.00, read-out: huvec.tta.18hr.
The mark [6] stands for this setting: HUVECs, 0.00 µM = 100.00, read-out: huvec.ttl.18hr.
Setting [7] is: iPSC-EC, 0.00 µM control = 100.00, read-out: endo.cyto.24hr.
Setting [8] is: iPSC-EC, 0.00 µM control = 100.00, read-out: endo.mito.24hr.
Setting [9] is: iPSC-EC, 0.00 µM control = 100.00, read-out: endo.mitoint.24hr.
Setting [10] is: iPSC-EC, 0.00 µM control = 100.00, read-out: endo.nma.24hr.
Where [11] appears, read: iPSC-EC, 0.00 µM control = 100.00, read-out: endo.tc.24hrs.
Where [12] appears, read: tube formation mtl, read-out: POD huvec.mtl.18hr.
Where [13] appears, read: tube formation tlps, read-out: POD huvec.tlps.18hr.
The mark [14] stands for this setting: tube formation tta, read-out: POD huvec.tta.18hr.
[15] abbreviates: tube formation ttl, read-out: POD huvec.ttl.18hr.
[16] abbreviates: endothelial cells (endo), cyto, read-out: POD endo.cyto.24hr.
[17] abbreviates: endothelial cells (endo), mito, read-out: POD endo.mito.24hr.
Where [18] appears, read: endothelial cells (endo), mitoint, read-out: POD endo.mitoint.24hr.
The mark [19] stands for this setting: endothelial cells (endo), nma, read-out: POD endo.nma.24hr.
Setting [20] is: endothelial cells (endo), tc, read-out: POD endo.tc.24hr.

Here are results for three compounds from paper PMC7377239, “Cardiovascular Effects of Polychlorinated Biphenyls and Their Major Metabolites” (Environmental Health Perspectives, 2020).

The structures appear in SMILES notation. Read-outs that look alike come from different tables or passages of the source.

For the compound `Oc1cc(Cl)c(-c2cc(Cl)ccc2Cl)cc1Cl` [4-OH PCB52], the activity at 0.01 µM in assay [1] (setting [3]) turned out to be 112%; in assay [1] (setting [4]), 103%; in assay [1] (setting [5]), 129%; in assay [1] (setting [6]), 112%; in assay [2] (setting [8]) it was 96.3%; in assay [2] (setting [9]) it was 90.5%. The activity at 0.01 µM in assay [2] (setting [10]) was 104%. The activity at 0.1 µM worked out at 98.5% in assay [1] (setting [3]); 96.7% in assay [1] (setting [4]); 107% in assay [1] (setting [5]); 98.2% in assay [1] (setting [6]); 94.5% in assay [2] (setting [8]); 89.8% in assay [2] (setting [9]). Besides, the activity at 0.1 µM in assay [2] (setting [10]) is 104%. For the same compound, the activity at 1 µM in assay [1] (setting [3]) came to 94%; in assay [1] (setting [4]), 92.4%; in assay [1] (setting [5]) it was 123%; in assay [1] (setting [6]), 110%; in assay [2] (setting [8]), 101%; in assay [2] (setting [9]), 88.2%. Further, the activity at 1 µM in assay [2] (setting [10]) was 103%. Besides, the activity at 10 µM in assay [1] (setting [3]) is 91.1%; in assay [1] (setting [4]), 77.1%; in assay [1] (setting [5]), 98.5%; in assay [1] (setting [6]) it was 87.2%; in assay [2] (setting [8]) it was 98%; in assay [2] (setting [9]) it was 98.3%. In addition, the activity at 10 µM in assay [2] (setting [10]) is 103%. Besides, the activity at 100 µM in assay [1] (setting [3]) turned out to be 69.6%; in assay [1] (setting [4]), 35.6%; in assay [1] (setting [5]) it was 168%; in assay [1] (setting [6]), 163%; in assay [2] (setting [8]), 39.7%; in assay [2] (setting [9]) it was 51.4%. For the same compound, in assay [2] (setting [10]), the activity at 100 µM is 89.3%. The minimal effective concentration in assay [1] (HUVECs, top concentration 100.00 µM, read-out: huvec.mtl.18hr POD) was 8.34 µM; in assay [1] (HUVECs, top concentration 100.00 µM, read-out: huvec.tlps.18hr POD), 4.13 µM; in assay [1] (HUVECs, top concentration 100.00 µM, read-out: huvec.tta.18hr POD), 51.8 µM; in assay [1] (HUVECs, top concentration 100.00 µM, read-out: huvec.ttl.18hr POD) it was 62.1 µM; in assay [2] (iPSC-EC, top concentration 100.00 µM, read-out: endo.cyto.24hr POD) it was 13.2 µM; in assay [2] (iPSC-EC, top concentration 100.00 µM, read-out: endo.mito.24hr POD), 13.2 µM. In addition, the minimal effective concentration in assay [2] (iPSC-EC, top concentration 100.00 µM, read-out: endo.mitoint.24hr POD) turned out to be 43.8 µM; in assay [2] (iPSC-EC, top concentration 100.00 µM, read-out: endo.nma.24hr POD), 63.5 µM; in assay [2] (iPSC-EC, top concentration 100.00 µM, read-out: endo.tc.24hrs POD), 16.6 µM. For the same compound, the viability at 0.01 µM in assay [2] (setting [7]) and in assay [2] (setting [11]) was 96.8% throughout. The viability at 0.1 µM in assay [2] (setting [7]) and in assay [2] (setting [11]) was 94.9% throughout. The viability at 1 µM in assay [2] (setting [7]) and in assay [2] (setting [11]) was 101% in each case. In addition, the viability at 10 µM in assay [2] (setting [7]) and in assay [2] (setting [11]) was 98% each time. Besides, the viability at 100 µM came out at 42.3% in assay [2] (setting [7]) and 49.3% in assay [2] (setting [11]).
As for `Oc1ccc(O)c(-c2ccc(Cl)cc2)c1` [2',5'-diOH-PCB 3, 4-Chloro-2′,5′-dihydroxybiphenyl], the minimal effective concentration was found to be 1.26 µM in assay [1] (setting [12]); 1.55 µM in assay [1] (setting [13]); 1.39 µM in assay [1] (setting [14]); 1.23 µM in assay [1] (setting [15]); 6.71 µM in assay [2] (setting [16]); 6.71 µM in assay [2] (setting [17]). The minimal effective concentration came to 44.6 µM in assay [2] (setting [18]), 13.7 µM in assay [2] (setting [19]) and 5.78 µM in assay [2] (setting [20]).
Consider `Oc1ccccc1-c1ccc(Cl)cc1` [2'-OH-PCB 3], for which the minimal effective concentration in assay [1] (setting [12]) was 100 µM; in assay [1] (setting [13]), 0.57 µM; in assay [1] (setting [14]) it was 100 µM; in assay [1] (setting [15]) it was 100 µM; in assay [2] (setting [16]), 44.3 µM; in assay [2] (setting [17]), 44.3 µM. Moreover, the values for the minimal effective concentration in assay [2] (setting [18]), in assay [2] (setting [19]) and in assay [2] (setting [20]) were 100 µM, 1.82 µM and 68.2 µM, respectively.
